Data from patent US4985447A, “Certain benzoquinones, naphthoquinones and derivatives thereof which exhibit thromboxane A2 synthetase inhibition or receptor antagonism and the like” (Takeda Chemical Industries, Ltd., priority 1986, dated 1991).

Key:
[1] = test system: lipid peroxide in rat brain homogenate; experiment: Inhibition of production of lipid peroxide in rat brain homogenate; type: biochemical, rat (Sprague-Dawley)
Procedure: Procedure: Sprague-Dawley rats (male, 9-15 weeks old) anesthetized with pentobarbital (50 mg/kg, intraperitoneal administration) were venesected and the brain tissue was resected. The tissue was homogenized in phosphate buffer (pH 7.4), and used as a 5% homogenate (on weight basis). The brain homogenate was allowed to react at 37° C. for 1 hour, and the amount of lipid peroxide produced was determined with the thiobarbituric acid method according to the method of Okawa et al. (Analytical Biochem 95 551, 1979). The drug was added to the 5% homogenate before the reaction at 37° C. for 1 hour so that the final concentration might be 5×10^-7 or 10^-6 M. Inhibition of production of lipid peroxide was expressed as the rate of inhibition in % of the amount produced in the solvent(DMSO)-treated group.

[2] = Effect on occurrence of ventricular arrhythmia due to ischemia-reperfusion in rat; type: in vivo, rat (Sprague-Dawley); conditions: 30 mg/kg, p.o., rats showing abnormal function/rats used, during 10 minutes of reperfusion; for Incidence of ventricular fibrillation: **p<0.01 (X^2 test); for Incidence of cardiac arrest / Incidence of ventricular tachycardia: *p<0.05 (X^2 test)
Procedure: Procedure: The experiment was carried out in Sprague-Dawley rat (male, 11-12 weeks old) according to the method of A. S. Manning (Circ. Res. 55, 545, 1984). A rat was given orally a drug or water at the dose of 5 ml/kg, and anesthetized 1 hour later with pentobarbital (50 mg/kg, intraperitoneal injection). The rat was thoractomized under artificial respiration and the coronary left anterior descending artery was ligated for 5 minutes, followed by reperfusion for 10 minutes. The incidences of ventricular tachycardia, ventricular fibrillation and cardiac arrest observed for the 10 minutes of reperfusion were determined.

[3] = Effect on cerebral ischemic seizure in spontaneously hypertensive rat; type: in vivo; conditions: orally at 30 mg/kg
Procedure: Procedure: A spontaneously hypertensive rat (male, 20-23 weeks old) was given orally a compound or water at the dose of 5 ml/kg, and 1 hour later anesthetized with pentobarbital. Bilateral common carotid arteries were ligated, and the interval from immediately after the ligation to the occurrence of seizure (cramp, jumping, etc.) was measured.

[4] = biological target: T1, Thromboxane A2 (TXA2) receptor (Oryctolagus cuniculus, UniProt Q6WQI8); experiment: Thromboxane A2 (TXA2) receptor antagonism (rabbit aorta strip contraction by U-46619); conditions: for Inhibition of contraction of rabbit aorta strip due to U-46619: U-46619 10^-7 M, mean ± standard error, 6 cases
T1 construct: contraction by U-46619
T1 sequence (Q6WQI8 1-233): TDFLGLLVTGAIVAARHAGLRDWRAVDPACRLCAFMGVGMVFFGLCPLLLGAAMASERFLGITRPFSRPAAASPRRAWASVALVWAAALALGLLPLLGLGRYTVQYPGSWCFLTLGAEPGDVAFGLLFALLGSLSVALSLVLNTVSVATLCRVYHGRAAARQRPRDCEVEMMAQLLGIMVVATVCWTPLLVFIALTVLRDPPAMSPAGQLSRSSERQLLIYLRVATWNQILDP
Procedure: Thromboxane A2 (TXA2) receptor antagonism
Procedure: A spiral strip of the rabbit aorta (2-3 mm wide, about 3 cm long) was suspended in Krebs-Henseleit solution under the load of 2 g. The Krebs-Henseleit solution was saturated with a mixed gas of 95% O2 -5% CO2 and warmed at 37° C. Inhibition of the contraction of the vascular strip caused by a TXA2 mimic substance, U-46619* (10^-7 M), by pretreatment with Compound No.13 30 minutes before was studied.

| SMILES | Inhibition of production of lipid peroxide in rat brain homogenate ([1]; 5 × 10^-7 M) [%] | Inhibition of production of lipid peroxide in rat brain homogenate ([1]; 10^-6 M) [%] | Incidence of ventricular fibrillation [2] | Incidence of ventricular fibrillation ([2]; listed as Compound No.1) | Incidence of cardiac arrest [2] | Incidence of ventricular tachycardia [2] | Incidence of cardiac arrest ([2]; listed as Compound No.1) | Incidence of ventricular tachycardia ([2]; listed as Compound No.1) | Interval to the occurrence of cerebral ischemic seizure (in words) [3] | protective effect against cerebral ischemia (in words) [3] | Inhibition of contraction of rabbit aorta strip due to U-46619 ([4]; 10^-5 M) [%] | Inhibition of contraction of rabbit aorta strip due to U-46619 ([4]; 10^-5 M, listed as Compound No.13) [%] | TXA2 receptor antagonism (in words) ([4]; 10^-6 M and 10^-5 M) | Inhibition of contraction of rabbit aorta strip due to U-46619 ([4]; 10^-6 M) [%] | Inhibition of contraction of rabbit aorta strip due to U-46619 ([4]; 10^-6 M, listed as Compound No.13) [%] |
| --- | --- | --- | --- | --- | --- | --- | --- | --- | --- | --- | --- | --- | --- | --- | --- |
| CC1=C(C)C(=O)C(C(C)c2cccnc2)=C(C)C1=O (centres unmarked) [Compound No. 1, 3,5,6-trimethyl-2-[1-(3-pyridyl)ethyl]-1,4-benzoquinone] | 6 | 90 | 3/8 | inhibited significantly | 1/8 | 6/8 | inhibited significantly | inhibited significantly | prolonged remarkably the interval to the occurrence of cerebral ischemic seizure | exerts protective effects against cerebral ischemia |  |  |  |  |  |
| CC1=C(C)C(=O)C(C(CCCCCC(=O)O)c2cccnc2)=C(C)C1=O (centres unmarked) [Compound No. 13, 7-(3-pyridyl)-7-(3,5,6-trimethyl-1,4-benzoquinon-2-yl)heptanoic acid] | 20 | 84 |  |  |  |  |  |  |  |  | 86 ± 8 | 86 | remarkable TXA2 receptor antagonism | 14 ± 4 | 14 |
